The target of series [1] is T1, EmbB2-AcpM2 complex (Msm EmbB) (Mycolicibacterium smegmatis, UniProt A0R614).
T1 construct: gene MSMEG_6389; full-length EmbB, C-terminal 10xHis tag, pMV261 vector, homologous overexpression in M. smegmatis, detergent purified then amphipol exchanged; homodimer with endogenous co-purified AcpM on each protomer; with Meromycolate extension acyl carrier protein
T1 sequence (A0R614 1-1082): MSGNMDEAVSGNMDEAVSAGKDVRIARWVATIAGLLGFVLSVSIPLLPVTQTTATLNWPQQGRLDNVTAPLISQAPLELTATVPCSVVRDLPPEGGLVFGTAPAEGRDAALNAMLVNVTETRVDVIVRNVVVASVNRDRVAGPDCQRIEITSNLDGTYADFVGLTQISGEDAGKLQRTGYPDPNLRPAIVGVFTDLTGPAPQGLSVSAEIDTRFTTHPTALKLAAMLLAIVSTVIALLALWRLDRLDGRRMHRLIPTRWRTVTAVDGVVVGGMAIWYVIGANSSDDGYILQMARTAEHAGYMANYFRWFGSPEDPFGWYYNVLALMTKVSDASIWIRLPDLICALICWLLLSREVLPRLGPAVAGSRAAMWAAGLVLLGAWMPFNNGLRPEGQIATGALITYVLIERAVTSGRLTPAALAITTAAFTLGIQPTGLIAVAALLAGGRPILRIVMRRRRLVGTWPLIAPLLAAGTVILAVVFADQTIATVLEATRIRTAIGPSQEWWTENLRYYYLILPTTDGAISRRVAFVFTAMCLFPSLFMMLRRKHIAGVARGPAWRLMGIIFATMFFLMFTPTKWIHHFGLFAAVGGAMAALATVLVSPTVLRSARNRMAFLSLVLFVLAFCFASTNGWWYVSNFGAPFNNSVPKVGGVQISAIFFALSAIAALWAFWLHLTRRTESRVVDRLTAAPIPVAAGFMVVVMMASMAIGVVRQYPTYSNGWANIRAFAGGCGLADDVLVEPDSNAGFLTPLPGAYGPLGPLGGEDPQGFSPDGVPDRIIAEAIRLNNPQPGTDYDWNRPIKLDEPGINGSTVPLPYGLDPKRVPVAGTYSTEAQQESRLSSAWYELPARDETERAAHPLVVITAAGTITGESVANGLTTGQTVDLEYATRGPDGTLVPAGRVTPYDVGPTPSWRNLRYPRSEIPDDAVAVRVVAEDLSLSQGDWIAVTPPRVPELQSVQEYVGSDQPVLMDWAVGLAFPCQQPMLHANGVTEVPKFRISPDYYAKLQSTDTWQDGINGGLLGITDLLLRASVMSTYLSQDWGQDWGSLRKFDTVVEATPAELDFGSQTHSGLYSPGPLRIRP
T1 sequence (A0R0B3 1-99 partner): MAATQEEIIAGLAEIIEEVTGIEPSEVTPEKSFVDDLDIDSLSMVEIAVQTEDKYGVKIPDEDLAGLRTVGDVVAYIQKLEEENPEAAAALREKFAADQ
The series can be described thus: cryo-EM structure of the complex, […] Å; mass spectrometry of co-purified lipid. The format is binding. Particulars: endogenous donor substrate, bound in one protomer of the asymmetric active state.

Series [2] addresses T1, EmbB2-AcpM2 complex (Msm EmbB). As to the kind of experiment: microscale thermophoresis (MST). It counts as binding.
Series [3] deals with the molecule itself. As to the kind of experiment: cryo-EM structure; detergent purified, amphipol exchanged EmbB with co-purified endogenous AcpM; single-particle analysis; two 3D classes refined: symmetric resting state (3.6 A) and asymmetric DPA-bound active state (3.5 A).

Residue numbers refer to the chain shown, from its start.

`CC(C)=CCC/C(C)=C/CC/C(C)=C\CC/C(C)=C\CC/C(C)=C\CC/C(C)=C\CC/C(C)=C\CC/C(C)=C\CC/C(C)=C\CC/C(C)=C\COP(=O)(O)O[C@@H]1O[C@H](CO)[C@@H](O)[C@@H]1O` [decaprenyl-phosphate-arabinose]: in series [1], the “cryo-EM structure of the complex, 3.5 Å; mass spectrometry of co-purified lipid” value is “The whole of the DPA fits into this part of the map”. In general, Kd refers to the concentration at which binding is half-saturated. Low values mean tighter binding, high ones weaker binding. In the case of `CC[C@@H](CO)NCCN[C@@H](CC)CO` [ethambutol], the Kd in series [2] is 1580 nM.

B1: Mycobacterium smegmatis arabinosyltransferase EmbB (MSMEG_6389) (enzyme, UniProt Q50395 1-1082, looked up)
chain: T1 sequence (A0R614 1-1082) with M453I, V459D, N508K, I579T
notes: arabinosyltransferase EmbB of Mycobacterium smegmatis, locus MSMEG_6389; 69.6% identical to Mtb EmbB (Rv_3795); Seen as a homodimer by cryo-EM, with one AcpM on each protomer (EmbB2-AcpM2); also called Msm EmbB; EmbB protomer
As a reminder, the stoichiometry N is the number of molecules, sites or subunits per partner or assembly. As to B1, in series [3], the “stoichiometry N” value was determined as 2.

Values taken from publication PMC7305291, “Cryo-EM snapshots of mycobacterial arabinosyltransferase complex EmbB2-AcpM2” (Protein & Cell, 2020).
